Entries after “also recorded” stand apart in the source; their conditions may differ.
Assays:
SDS-damaged skin [1] = experiment: Trans-epidermal water loss (TEWL) / barrier recovery of SDS-damaged skin (Tewameter); type: in vivo, female volunteers (human)
Experimental: Measurements of trans-epidermal water loss (TEWL) were performed with the Tewameter (Courage & Khazaka, Cologne, Germany). The Tewameter is a device for measurement of water evaporation on skin surfaces based on the diffusion principle discovered by A. Fick in 1885.
Five female volunteers at the age of 22-43 years with healthy skin were included in the test.
Measurements were carried out at a temperature of 22°±1° C. and a relative humidity of 60±10%. Subjects were accustomed to ambient conditions for 20 min prior to any measurement. The test was carried out on the volar forearms. The skin of the forearms was treated with a 5% aqueous solution of sodium lauryl sulphate (SDS) and an occlusive dressing applied. The dressing was removed 2 h later, and the regions gently washed with water and air-dried. After 30 min the measurements were done. Then the three test products were applied, one area remained untreated. The dose of application was about 2 mg/cm^2. In the following 14 days a home application in the morning and evening took place.
Measurements were evaluated during the treatment period on day 3, 7 and 14 one hour after the last daily application. Use of other cosmetic products was restricted on the test areas throughout the whole study.

healthy skin = experiment: Skin humidity of healthy skin (corneometer CM 820 PC), long-term effects of ceramide IIIA; type: in vivo, female volunteers (human); conditions: creams with 0.2% and 0.5% ceramide IIIA, twice daily, 28 days, compared to placebo
Experimental: (§1) The corneometer CM 820 PC (Courage and Khazaka, Cologne, Germany) registers the electrical capacitance of the skin surface, which is a measure of the degree of moisture on the skin's surface. The capacitance is expressed digitally in arbitrary units (a.u.). Three measurements were performed on each test area and the mean was used to define hydration state of the stratum corneum.
(§2) The corneometer comprises a console and its sensor. The sensor is connected to the console by a special plug and coiled cable. The measurement is indicated on the 40×18 mm display screen on the console as a three-place number. The display also fulfils other information functions.
The sensor is rectangular in shape. Its special glass coated active front surface can be moved axially, and has a stroke of at least 3 mm. […]
(§3) The corneometer is completely automatic in operation. In order to carry out a measurement, the measuring head is pressed against the area of skin to be measured. […]
Measurements were carried out at a temperature of 22°±1° C. and a relative humidity of 60±10%. […] Initially untreated skin was measured in all three areas to find baseline values. […]
Measurements were evaluated during the treatment period on day 7, 14 and 28 two hours after the last daily application. The application was ceased on day 28 and further measurements were evaluated on day 30 and 32. […]

[2] = Solubility in emollients (visual inspection, maximum concentration before the solution turned cloudy); type: physicochemical
Experimental: Increasing amounts of the compound were added to the solvent and stirred under nitrogen for 30 minutes at 45° C. After cooling to room temperature (22°±2° C.) the solutions were kept in the dark. After 1, 24 and 48 hours the solutions were visually inspected. The maximum concentration was determined before the solution turned cloudy, indicating the presence of insoluble crystals.

SDS-damaged skin [3] = experiment: Skin humidity of SDS-damaged skin (corneometer CM 820 PC); type: in vivo, female volunteers (human); conditions: creams with 0.2% and 0.5% ceramide IIIA, 14 days, compared to placebo
Experimental: as §1, §2
The sensor is rectangular in shape. Its special glass coated active front surface can be moved axially, and has a stroke of at least 3 mm. The measuring principle demands that the sensor surface be placed flat on the test object at a constant pressure. In order to ensure this as reproducibly as possible, the front surface of the measuring head has been designed to be very small (7×7 mm). […]
as §3
Measurements were evaluated during the treatment period on day 3, 7 and 14 one hour after the last daily application. […]

[4] = isocetyl alcohol (Eutanol G16) and/or isostearic acid (Emersol)
[5] = isocetyl alcohol (Eutanol G16), stirred 45° C., room temperature (22°±2° C.), 1, 24 and 48 hours

| Solubility [2, 4] | Solubility [2, 5] | Compound | Trans-epidermal water loss (SDS-damaged skin [1]; SDS-damaged skin, 14 days treatment, compared to placebo) | Restoration of the barrier layer (SDS-damaged skin [1]; surfactant (SDS)-pretreated skin, compared to placebo product) | Moisturizing effect (skin humidity) (healthy skin) | Solubility, in words ([2]; emollient solvents, compared with saturated analogue and ceramide 1) | Moisturizing effect (skin humidity) (SDS-damaged skin [3]) |
| --- | --- | --- | --- | --- | --- | --- | --- |
| ≥ 1 % (w/v) | 5 % w/v | CCCCC/C=C\C/C=C\CCCCCCCC(=O)N[C@@H](CO)[C@H](O)[C@H](O)CCCCCCCCCCCCCC [Ceramide IIIA, N-linoleoylphytosphingosine] | a reduction of trans-epidermal water loss | high capacity for restoration of the impaired lipid barrier of the skin; also recorded: quicker recovery of the barrier layer of SDS-treated skin than the placebo product | clear moisture-retaining effect on healthy skin; also recorded: clear moisturizing effect compared to placebo | solubilizes much better than its saturated analogue and than ceramide 1 | increase of skin humidity of damaged skin compared to placebo |
| less than 0.2 % (w/v) | 0.16 % w/v | CCCCCCCCCCCCCCCCCC(=O)N[C@@H](CO)[C@H](O)[C@H](O)CCCCCCCCCCCCCC [Ceramide III, N-stearoylphytosphingosine, reference compound] |  |  |  |  |  |
